Several values for one entry are separate records, joined by “and”; a condition that tells them apart may be missing. Equal entries are not always repeated. Toxic doses and inconclusive results are not listed.
System: CD2F1 mice, L1210 leukemia ip, survival T/C
Assay: NCI In Vivo Anticancer Drug Screen. Data for tumor model L1210 Leukemia (intraperitoneal) in CD2F1 (CDF1) mice
Settings: higher = longer survival
Procedure, shortened: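 Ratio T/C, where T is the treated-group value and C the vehicle-dosed control value, from mice implanted with a transplantable tumor.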

[1] = endpoint: mean survival time, dose: 100.0 mg/kg/injection, schedule: Q01DX009 (ip), vehicle: saline
[2] = endpoint: mean survival time, dose: 200.0 mg/kg/injection, schedule: Q01DX009 (ip), vehicle: saline
[3] = endpoint: mean survival time, dose: 400.0 mg/kg/injection, schedule: Q01DX009 (ip), vehicle: saline

SMILES: COC1OC(CO)C(O)C(NC(=O)N(C)N=O)C1O (stereo unspecified)
- T/C (endpoint: mean survival time, dose: 12.5 mg/kg/injection, schedule: Q01DX009 (ip), vehicle: saline): 111 % of control
- T/C (endpoint: mean survival time, dose: 25.0 mg/kg/injection, schedule: Q01DX009 (ip), vehicle: saline): 114 % of control
- T/C [1]: 151 % of control
- T/C [2]: 157 % of control and 197 % of control
- T/C [3]: 95 % of control
- T/C (endpoint: median survival time, dose: 25.0 mg/kg/injection, schedule: Q01DX009 (ip), vehicle: saline): 121 % of control
- T/C (endpoint: median survival time, dose: 100.0 mg/kg/injection, schedule: Q01DX009 (ip), vehicle: saline): 159 % of control and 160 % of control
- T/C (endpoint: median survival time, dose: 144.0 mg/kg/injection, schedule: Q01DX005 (ip), vehicle: saline): 158 % of control
- T/C (endpoint: median survival time, dose: 200.0 mg/kg/injection, schedule: Q01DX009 (ip), vehicle: saline): 172 % of control and 209 % of control
- T/C (endpoint: median survival time, dose: 240.0 mg/kg/injection, schedule: Q01DX005 (ip), vehicle: saline): 170 % of control and 172 % of control
- T/C (endpoint: median survival time, dose: 400.0 mg/kg/injection, schedule: Q01DX005 (ip), vehicle: saline): 175 % of control and 225 % of control
- T/C (endpoint: median survival time, dose: 400.0 mg/kg/injection, schedule: Q01DX009 (ip), vehicle: saline): 222 % of control and 236 % of control
- T/C (endpoint: median survival time, dose: 666.66 mg/kg/injection, schedule: Q01DX005 (ip), vehicle: saline): 233 % of control
- T/C (endpoint: median survival time, dose: 1111.11 mg/kg/injection, schedule: Q01DX005 (ip), vehicle: saline): 92 % of control

SMILES: CCCN(N=O)C(=O)Nc1ccc(C2CC(=O)N(C)C2=O)cc1 (stereo unspecified)
- T/C (endpoint: mean survival time, dose: 12.5 mg/kg/injection, schedule: Q01DX001 (ip), vehicle: distilled water + Tween-80): 112 % of control
- T/C (endpoint: mean survival time, dose: 25.0 mg/kg/injection, schedule: Q01DX001 (ip), vehicle: distilled water + Tween-80): 111 % of control
- T/C (endpoint: mean survival time, dose: 50.0 mg/kg/injection, schedule: Q01DX001 (ip), vehicle: distilled water + Tween-80): 109 % of control
- T/C (endpoint: mean survival time, dose: 100.0 mg/kg/injection, schedule: Q01DX001 (ip), vehicle: distilled water + Tween-80): 101 % of control
- T/C (endpoint: mean survival time, dose: 200.0 mg/kg/injection, schedule: Q01DX001 (ip), vehicle: distilled water + Tween-80): 107 % of control

SMILES: CCN=C(N)SCCS(=O)(=O)O
- T/C (endpoint: mean survival time, dose: 100.0 mg/kg/injection, schedule: Q01DX005 (ip), vehicle: saline): 103 % of control
- T/C [1]: 97 % of control
- T/C (endpoint: mean survival time, dose: 200.0 mg/kg/injection, schedule: Q01DX005 (ip), vehicle: saline): 106 % of control
- T/C [2]: 97 % of control
- T/C (endpoint: mean survival time, dose: 400.0 mg/kg/injection, schedule: Q01DX005 (ip), vehicle: saline): 95 % of control
- T/C [3]: 97 % of control

SMILES: CCCCC/C=C/C/C=C\CCCCCCCC1=C(O)C(=O)C(OC)=C(OC)C1=O
- T/C (endpoint: mean survival time, dose: 6.25 mg/kg/injection, schedule: Q01DX009 (ip), vehicle: saline with Tween-80): 120 % of control
- T/C (endpoint: mean survival time, dose: 12.5 mg/kg/injection, schedule: Q01DX009 (ip), vehicle: saline with Tween-80): 106 % of control
- T/C (endpoint: mean survival time, dose: 25.0 mg/kg/injection, schedule: Q01DX009 (ip), vehicle: saline with Tween-80): 98 % of control
- T/C (endpoint: mean survival time, dose: 50.0 mg/kg/injection, schedule: Q01DX009 (ip), vehicle: saline with Tween-80): 102 % of control
- T/C (endpoint: mean survival time, dose: 100.0 mg/kg/injection, schedule: Q01DX009 (ip), vehicle: saline with Tween-80): 102 % of control
- T/C (endpoint: mean survival time, dose: 200.0 mg/kg/injection, schedule: Q01DX009 (ip), vehicle: saline with Tween-80): 106 % of control

SMILES: COc1cccc2c1C(=O)c1c(O)c3c(c(O)c1C2=O)CC(O)(/C(C)=N/NC(=O)CCC(=O)N/N=C(\C)C1(O)Cc2c(O)c4c(c(O)c2C(OC2CC(N)C(O)C(C)O2)C1)C(=O)c1c(OC)cccc1C4=O)CC3OC1CC(N)C(O)C(C)O1 (stereo unspecified)
- T/C (endpoint: mean survival time, dose: 0.39 mg/kg/injection, schedule: Q01DX009 (ip), vehicle: water): 102 % of control
- T/C (endpoint: mean survival time, dose: 0.78 mg/kg/injection, schedule: Q01DX009 (ip), vehicle: water): 106 % of control
- T/C (endpoint: mean survival time, dose: 1.56 mg/kg/injection, schedule: Q01DX009 (ip), vehicle: water): 113 % of control and 101 % of control
- T/C (endpoint: mean survival time, dose: 3.13 mg/kg/injection, schedule: Q01DX009 (ip), vehicle: water): 106 % of control and 111 % of control
- T/C (endpoint: mean survival time, dose: 6.25 mg/kg/injection, schedule: Q01DX009 (ip), vehicle: water): 118 % of control
- T/C (endpoint: mean survival time, dose: 12.5 mg/kg/injection, schedule: Q01DX009 (ip), vehicle: water): 150 % of control
- T/C (endpoint: mean survival time, dose: 25.0 mg/kg/injection, schedule: Q01DX009 (ip), vehicle: water): 111 % of control

SMILES: COC(=O)C(NC(C)=O)C(O)Cl (stereo unspecified)
- T/C (endpoint: mean survival time, dose: 100.0 mg/kg/injection, schedule: Q04DX003 (ip), vehicle: saline): 102 % of control
- T/C (endpoint: mean survival time, dose: 200.0 mg/kg/injection, schedule: Q04DX003 (ip), vehicle: saline): 100 % of control
- T/C (endpoint: mean survival time, dose: 400.0 mg/kg/injection, schedule: Q04DX003 (ip), vehicle: saline): 98 % of control
